pEC50: −log10 of the molar value. The source made the active and inactive calls.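 How the source made its calls: active means compounds whose weighted score, built from EC50 under 10 micromolar and fitted span over a set limit, tops 52; inactive means the rest.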

In this experiment the target is Broad substrate specificity ATP-binding cassette transporter ABCG2 (Homo sapiens) (UniProt Q9UNQ0). As to the kind of experiment: ABCG2 efflux pump inhibitors, dose response, Ig-MXP3 cells, JC-1 substrate, flow cytometry (AID 489003). The note with it: JC-1 efflux. In general terms: In flow cytometry, cells or beads pass a laser one at a time.
Broad substrate specificity ATP-binding cassette transporter ABCG2 (Homo sapiens), sequence (Q9UNQ0 whole entry, looked up): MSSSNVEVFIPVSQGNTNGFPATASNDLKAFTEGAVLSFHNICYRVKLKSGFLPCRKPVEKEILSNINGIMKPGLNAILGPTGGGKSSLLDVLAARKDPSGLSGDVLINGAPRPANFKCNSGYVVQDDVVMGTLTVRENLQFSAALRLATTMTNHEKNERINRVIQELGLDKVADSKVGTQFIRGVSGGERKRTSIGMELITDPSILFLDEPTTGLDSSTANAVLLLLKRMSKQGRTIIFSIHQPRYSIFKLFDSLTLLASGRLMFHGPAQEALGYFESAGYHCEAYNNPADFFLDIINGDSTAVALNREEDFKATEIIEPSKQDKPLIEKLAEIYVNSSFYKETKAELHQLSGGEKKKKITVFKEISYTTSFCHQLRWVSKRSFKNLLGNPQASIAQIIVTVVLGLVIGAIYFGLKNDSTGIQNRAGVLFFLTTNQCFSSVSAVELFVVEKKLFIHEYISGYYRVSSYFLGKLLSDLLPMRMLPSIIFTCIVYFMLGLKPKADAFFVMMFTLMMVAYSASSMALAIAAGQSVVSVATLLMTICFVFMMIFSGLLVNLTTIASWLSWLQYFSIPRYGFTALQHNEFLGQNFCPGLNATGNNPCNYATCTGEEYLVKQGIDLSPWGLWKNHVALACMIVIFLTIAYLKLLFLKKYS

For orientation: pEC50 means the EC50 on a negative log10 scale, so that one unit is a factor of ten. Take `Cc1cc(C(=O)N2CCN(c3cc(-c4ccco4)nc4cc(-c5ccccc5)nn34)CC2)c(C)o1`: the pEC50 is 5.42. Turning to `COc1cccc(-c2cc3nc(C)c(C)c(N4CCN(C(=O)c5ccoc5)CC4)n3n2)c1`, the pEC50 is 5.42. Turning to `O=C(c1ccoc1)N1CCN(c2cc(-c3ccco3)nc3cc(-c4cccs4)nn23)CC1`, the pEC50 is 5.61.

For the compound `COc1ccc(-c2[nH]nc3nc(N4CCN(C(=O)c5ccoc5)CC4)cc(C(F)(F)F)c23)cc1`, the pEC50 was 5.07. Consider `O=C(c1ccsc1)N1CCN(c2cc(-c3ccco3)nc3cc(-c4ccccc4)nn23)CC1`, for which the pEC50 is 5.54. On the same count and under the same terms, for `COc1cccc(-c2cc3nc(-c4ccccc4)cc(N4CCN(C(=O)c5ccoc5)CC4)n3n2)c1` the value was 5.72; for `COc1cccc(-c2cc3nc(-c4cccc(C#N)c4)cc(N4CCN(C(=O)c5ccoc5)CC4)n3n2)c1`, 5.60; for `Cc1nc2cc(-c3ccccc3)nn2c(N2CCN(C(=O)c3ccoc3)CC2)c1C`, 5.70. `O=C(c1ccoc1)N1CCN(c2cc(-c3ccco3)nc3cc(-c4ccco4)nn23)CC1`: the negative logarithm of the EC50 (pEC50) is 6.16. Regarding `O=C(c1ccco1)N1CCN(c2c3c(nc4cc(-c5ccc(F)cc5)nn24)CCC3)CC1`, the pEC50 was 6.15. On to `O=C(OCc1ccccc1)N1CCN(c2cc(-c3ccco3)nc3cc(-c4ccccc4)nn23)CC1`, for which the pEC50 is 5.56. Still for that read-out and setting: for `c1ccc(-c2cc3nc(-c4ccco4)cc(N4CCNCC4)n3n2)cc1` the value was 5.16; for `CC(=O)N1CCN(c2cc(-c3ccco3)nc3cc(-c4cccc(Cl)c4)nn23)CC1`, 6.20. With `CNCCN(C)c1cc(-c2ccco2)nc2cc(-c3ccccc3)nn12`, the EC50 result is “inactive”. `O=C(c1ccoc1)N1CCCN(c2cc(-c3ccco3)nc3cc(-c4ccccc4)nn23)C1`: the pEC50 was 5.91. The same measure, in the same setting: for `COc1ccccc1-c1cc(N2CCN(C(=O)c3ccoc3)CC2)n2nc(-c3ccccc3)cc2n1` the value was 5.73. Same read-out and setting: for `O=C(c1coc2ccccc12)N1CCN(c2cc(-c3ccco3)nc3cc(-c4ccccc4)nn23)CC1` the value was 5.83; for `O=C(Nc1ccccc1)C1CCN(c2cc(-c3ccco3)nc3cc(-c4ccccc4)nn23)CC1`, 5.19. Same read-out and setting: for `O=C(c1ccoc1)N1CCN(c2cc(-c3cccc(F)c3)nc3cc(-c4cccc(Cl)c4)nn23)CC1` the value was 5.64; for `COC(=O)c1cccc(-c2cc(N3CCN(C(=O)c4ccoc4)CC3)n3nc(-c4cccc(OC)c4)cc3n2)c1`, 5.77.

Regarding `Cc1cc(N2CCN(C(=O)c3ccoc3)CC2)n2nc(-c3ccccc3)cc2n1`, the pEC50 was 5.14.

Regarding `Cc1ccc(-c2cc3nc(-c4ccco4)cc(N4CCN(C(=O)c5ccoc5)CC4)n3n2)cc1`, the pEC50 was 5.09. Still for that read-out and setting: for `O=C(c1ccoc1)N1CCN(c2cc(-c3ccco3)nc3cc(-c4cccc(Cl)c4)nn23)CC1` the value was 5.53; for `O=C(c1ccoc1)N1CCN(c2cc(-c3ccccc3F)nc3cc(-c4ccccc4)nn23)CC1`, 5.44; for `O=C(c1ccoc1)N1CCN(c2cc(-c3ccco3)nc3cc(-c4ccc(Cl)cc4)nn23)CC1`, 5.57. Turning to `CCc1c(C)nc2cc(-c3cccc(OC)c3)nn2c1N1CCN(C(=O)c2ccoc2)CC1`, the pEC50 was 5.84. In the case of `Cc1ccc(-c2nc3nc(C)cc(N4CCN(C(=O)c5ccco5)CC4)n3n2)cc1`, the pEC50 is 5.38. Turning to `Cc1ccc(-c2cc(N3CCN(C(=O)c4ccoc4)CC3)n3nc(-c4ccccc4)cc3n2)o1`, the pEC50 was 5.84.

`COc1ccc(-c2cc3nc(C)c(C)c(N4CCN(C(=O)c5ccoc5)CC4)n3n2)cc1`: the pEC50 is 5.92. For `c1ccc(CN2CCN(c3cc(-c4ccco4)nc4cc(-c5ccccc5)nn34)CC2)cc1`, the pEC50 is 5.77. Still for that read-out and setting: for `Cc1cc(N2CCN(C(=O)c3ccco3)CC2)n2nc(-c3ccccc3)nc2n1` the value was 5.03. Take `CC(=O)N1CCN(c2c(C)c(C)nc3cc(-c4ccc(F)cc4)nn23)CC1`: the EC50 entry is “inactive”.

With `O=C(C1CCCO1)N1CCN(c2c3c(nc4cc(-c5cccc(F)c5)nn24)CCCC3)CC1` (centres undefined), the EC50 entry is “inactive”. Turning to `Cc1cccc(-c2cc3nc(-c4ccco4)cc(N4CCN(C(=O)c5ccoc5)CC4)n3n2)c1`, the pEC50 is 5.04. Still for that read-out and setting: for `COc1ccc(-c2cc(N3CCN(C(=O)c4ccoc4)CC3)n3nc(-c4ccccc4)cc3n2)cc1` the value was 5.44. Take `COc1ccccc1-c1c(C)nn2c(N3CCN(C(=O)c4ccco4)CC3)cc(C)nc12`: the inhibition result (at 50 µM (top of the series)) is “inactive”.

As for `CN(CCN(C)c1cc(-c2ccco2)nc2cc(-c3ccccc3)nn12)C(=O)c1ccoc1`, the EC50 entry was “inactive”. Take `CC1CN(C(=O)OC(C)(C)C)CCN1c1cc(-c2ccco2)nc2cc(-c3ccccc3)nn12` (centres undefined): the pEC50 was 5.46. As for `COc1cc(OC)cc(-c2cc3nc(C)c(C)c(N4CCN(C(=O)c5ccoc5)CC4)n3n2)c1`, the pEC50 was 6.18. Take `CC(=O)N1CCN(c2cc(C)nc3cc(-c4cccc(F)c4)nn23)CC1`: the EC50 result is “inactive”. `O=C(c1ccco1)N1CCN(c2cc(-c3ccco3)nc3cc(-c4ccccc4)nn23)CC1`: the pEC50 was 6.07. `Cc1nc2cc(-c3ccc(Br)cc3)nn2c(N2CCN(C(=O)c3ccoc3)CC2)c1C`: the pEC50 is 4.99.

In the case of `COc1cccc(-c2cc3nc(C)c(C(C)C)c(N4CCN(C(=O)c5ccoc5)CC4)n3n2)c1`, the pEC50 was 5.22. Regarding `COc1cccc(-c2cc3nc(-c4cccc(C(F)(F)F)c4)cc(N4CCN(C(=O)c5ccoc5)CC4)n3n2)c1`, the negative-log EC50 (pEC50) was 6.10. As to `O=C1CN(c2cc(-c3ccco3)nc3cc(-c4ccccc4)nn23)CCN1c1ccccc1`, the pEC50 was 5.87. The same measure, in the same setting: with `COc1cccc(-c2cc3nc(-c4ccco4)cc(N4CCN(C(=O)c5ccoc5)CC4)n3n2)c1` the figure was 5.73. Turning to `CN(CCCN(C)c1cc(-c2ccco2)nc2cc(-c3ccccc3)nn12)C(=O)c1ccoc1`, the pEC50 is 5.57. For the compound `Cc1nn2c(N3CCN(C(=O)c4ccco4)CC3)cc(C(C)(C)C)nc2c1-c1ccc(Cl)cc1`, the pEC50 is 5.72.

As to `CN(C)c1cc(-c2ccco2)nc2cc(-c3ccccc3)nn12`, the pEC50 was 5.05. Consider `O=C(c1ccoc1)N1CCN(c2cc(-c3ccco3)nc3cc(-c4cccc(-c5ccco5)c4)nn23)CC1`, for which the pEC50 is 6.30. Turning to `COc1ccc(-c2cc3nc(C)c(C)c(N4CCN(C(C)=O)CC4)n3n2)cc1`, the pEC50 was 5.19. As for `COc1ccc(-c2cc3nc(-c4ccccc4)cc(N4CCN(C(=O)c5ccoc5)CC4)n3n2)cc1`, the pEC50 was 5.79.

Consider `CC1CN(C(=O)c2ccoc2)CCN1c1cc(-c2ccco2)nc2cc(-c3ccccc3)nn12` (centres undefined), for which the pEC50 is 5.53. Consider `COc1cccc(-c2cc(N3CCN(C(=O)c4ccoc4)CC3)n3nc(-c4cccc(OC)c4)cc3n2)c1`, for which the pEC50 was 6.27.

Regarding `COc1cccc(-c2cc3nc(C)c(C)c(N4CCN(Cc5ccco5)CC4)n3n2)c1`, the pEC50 was 6.41. For `O=C(c1ccoc1)N1CCN(c2cc(-c3cccs3)nc3cc(-c4ccccc4)nn23)CC1`, the pEC50 is 5.78. Consider `O=C(c1ccoc1)N1CCN(c2cc(-c3ccc(F)cc3)nc3cc(-c4ccccc4)nn23)CC1`, for which the pEC50 was 4.92. Regarding `COc1cccc(-c2cc(N3CCN(C(=O)c4ccoc4)CC3)n3nc(-c4ccccc4)cc3n2)c1`, the pEC50 was 5.48.

As for `Cc1cc(N2CCN(C(=O)c3ccco3)CC2)n2ncc(-c3ccccc3)c2n1`, the pEC50 is 5.12.

The record behind these values is PubChem BioAssay AID489003 (NMMLSC, 2010).
